Source: patent US20180104354A1, “CHIMERIC ANTIGEN RECEPTOR T CELL SWITCHES AND USES THEREOF” (The California Institute for Biomedical Research, priority 2013, published 2018)
Several values for one entry are separate records, joined by “and”; a condition that tells them apart may be missing. Equal values may be shown once. Read-outs that look alike come from different tables or passages of the source.

Assays:
KB (FR+) cells = experiment: In vitro cytotoxicity assay of anti-FITC-CAR-Ts with Folate-FITC, KB; type: cell-based
Procedure: (§1) Transduced human effector cells (˜50% transduction efficiency) were co-incubated with target cells at 10:1 (total T cells to target cells) ratio for 24 hr in the presence of varying concentrations of FITC “switches.” Redirected lysis of target cells was determined by CytoTox96 nonradioactive cytotoxicity assay kit (Promega, Madison, Wis.) according to manufacturer's protocol. The percentage of cytotoxicity was calculated by: % cytotoxicity=(Absorbance experimental average−Absorbance spontaneous average)/(absorbance max killing average−Absorbance spontaneous average)×100.
(§2) Human PBMCs were freshly isolated from whole blood of healthy donors by centrifugation with Ficoll-Paque PLUS (GE healthcare, Piscataway, N.J.) density gradient medium according to manufacturer's protocol. Cells were immediately activated with Dynabeads Human […] CD3/CD28 (Life Technologies, Carlsbad, Calif.) at 3:1 (bead to cell) ratio in AIM-V media (Life Technologies) containing 5% human AB serum (Valley Biomedical, Winchester, Va.). Lentiviral production was carried out using HEK293FT cell lines. Viral supernatant was used directly to transduce activated PBMCs via spinoculation in the presence of protamine sulfate and recombinant human IL2 (R&D systems, Minneapolis, Minn.). C4-2, KB, and A549 cell lines were maintained in RPMI-1640, Eagles's Minimum Essential Media, and F-12K medium supplemented with 10% fetal bovine serum, respectively (all from Life Technologies).
(§3) FIG. 6B-6C depicts the results from an in vitro cytotoxicity assay of anti-FITC-CAR-Ts co-incubated with KB (FR+) (see FIG. 6B) or A549 (FR−) (see FIG. 6C) target cells in the presence of varying concentrations Folate-FITC. Each concentration was carried out in triplicates. Results are shown as average percentage of cytotoxicity.

A549 (FR−) cells = experiment: In vitro cytotoxicity assay of anti-FITC-CAR-Ts with Folate-FITC, A549; type: cell-based; details: Homo sapiens; for cytotoxicity at 320 fM: 0.32 pM; for cytotoxicity at 0.0002 µM: 200 pM; for cytotoxicity at 0.001 µM: 1000 pM; for cytotoxicity at 0.005 µM: 5000 pM
Procedure: as §1, §2, §3

[1] = test system: C4-2 (PSMA+) prostate cancer cells; experiment: 24 hr cytotoxicity assay of anti-FITC-CAR T cells with P-TriA-FITC, C4-2; type: cell-based; details: triplicates
Procedure: as §1, §2
FIG. 5B depicts a scheme for synthesis of the TriA-2-[3-(1,3-dicarboxypropyl)ureido] pentanedioic acid linker to be conjugated to FITC. FIG. 5C depicts the results from a 24 hr cytotoxicity assay of anti-FITC-CAR T cells targeting C4-2 (PSMA+) prostate cancer cells with serial dilutions of P-TriA-FITC. Each concentration was carried out in triplicate. Results are shown as average percentage of cytotoxicity.

[2] = Pharmacokinetic study of P-TriA-FITC in mice; type: in vivo
Text: (§4) In brief, subcutaneous C4-2 (PSMA+) tumors were established in non-obese diabetic-severe combined immunodeficiency (NOD-SCID-γ−/−, NSG) mice.

C4-2 (PSMA+) tumors = experiment: In vivo efficacy, subcutaneous C4-2 tumors in NSG mice; details: s.c. C4-2 tumors
Text: as §4

Her2 = Her2 (UniProt P04626); experiment: cell-based or functional assay
CD19 [3] = molecular target: T1, CD19 (human, UniProt P15391 20-556); experiment: cell-based or functional assay
T1 sequence (looked up): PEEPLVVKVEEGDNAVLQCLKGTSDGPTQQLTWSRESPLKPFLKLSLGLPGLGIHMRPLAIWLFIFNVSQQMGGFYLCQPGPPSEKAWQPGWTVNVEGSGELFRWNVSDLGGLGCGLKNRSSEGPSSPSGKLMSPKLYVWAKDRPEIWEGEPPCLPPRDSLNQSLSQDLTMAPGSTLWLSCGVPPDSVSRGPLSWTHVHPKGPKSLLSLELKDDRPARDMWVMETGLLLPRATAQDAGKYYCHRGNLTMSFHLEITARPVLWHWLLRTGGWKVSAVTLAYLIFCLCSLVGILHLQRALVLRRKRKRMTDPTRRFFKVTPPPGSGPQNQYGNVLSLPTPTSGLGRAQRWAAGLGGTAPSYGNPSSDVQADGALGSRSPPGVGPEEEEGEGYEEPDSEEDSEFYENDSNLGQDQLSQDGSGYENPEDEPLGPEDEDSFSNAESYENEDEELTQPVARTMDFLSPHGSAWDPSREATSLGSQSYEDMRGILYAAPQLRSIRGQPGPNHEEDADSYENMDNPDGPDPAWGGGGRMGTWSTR

CD19 [4] = molecular target: T1, CD19; experiment: cell-based or functional assay; remark: listed apart in the source

Work on `Nc1nc2ncc(CNc3ccc(C(=O)N[C@H](CCC(=O)NCCNC(=S)Nc4ccc5c(c4)C(=O)OC54c5ccc(O)cc5Oc5cc(O)ccc54)C(=O)O)cc3)nc2c(=O)[nH]1` [FITC-folate switch] yielded a cytotoxicity at 1.6 pM (KB (FR+) cells) of 16.5%, a cytotoxicity at 8 pM (KB (FR+) cells) of 37.1% and a cytotoxicity at 40 pM (KB (FR+) cells) of 68.1%. For the same molecule, the cytotoxicity at 0.0002 µM (KB (FR+) cells) was 74.6%, the cytotoxicity at 0.001 µM (KB (FR+) cells) was 77.1% and the cytotoxicity at 0.005 µM (KB (FR+) cells) was 77%. The cytotoxicity at 320 fM (KB (FR+) cells) was 8.3%, the cytotoxicity at 320 fM (KB (FR+) cells; T-cell, KB (FR+), non-transduced T cells, 0.32 pM) was 2.27% and the cytotoxicity at 1.6 pM (KB (FR+) cells; T-cell, KB (FR+), non-transduced T cells, 1.6 pM) was 3.01%. The cytotoxicity at 8 pM (KB (FR+) cells; T-cell, KB (FR+), non-transduced T cells, 8 pM) was 2.19%, the cytotoxicity at 40 pM (KB (FR+) cells; T-cell, KB (FR+), non-transduced T cells, 40 pM) was 2.88% and the cytotoxicity at 0.0002 µM (KB (FR+) cells; T-cell, KB (FR+), non-transduced T cells, 200 pM) was 2.32%. For the same molecule, the cytotoxicity at 0.001 µM (KB (FR+) cells; T-cell, KB (FR+), non-transduced T cells, 1000 pM) was 2.38%, the cytotoxicity at 0.005 µM (KB (FR+) cells; T-cell, KB (FR+), non-transduced T cells, 5000 pM) was 2.04% and the cytotoxicity at 320 fM (A549 (FR−) cells; 4M5.3 CAR-T) was 0.957%. The cytotoxicity at 8 pM (A549 (FR−) cells; 4M5.3 CAR-T) was 0.765%, the cytotoxicity at 40 pM (A549 (FR−) cells; 4M5.3 CAR-T) was 2.55% and the cytotoxicity at 0.0002 µM (A549 (FR−) cells; 4M5.3 CAR-T) was 5.78%. For the same molecule, the cytotoxicity at 0.001 µM (A549 (FR−) cells; 4M5.3 CAR-T) was 5.87%, the cytotoxicity at 0.005 µM (A549 (FR−) cells; 4M5.3 CAR-T) was 3.15% and the cytotoxicity at 1.6 pM (A549 (FR−) cells; 4M5.3 CAR-T) was 0.527%. The cytotoxicity at 320 fM (A549 (FR−) cells; non-transduced T cells) was -0.986%, the cytotoxicity at 8 pM (A549 (FR−) cells; non-transduced T cells) was -1.05% and the cytotoxicity at 40 pM (A549 (FR−) cells; non-transduced T cells) was -1.52%. It also gave a cytotoxicity at 0.0002 µM (A549 (FR−) cells; non-transduced T cells) of -0.96%, a cytotoxicity at 0.001 µM (A549 (FR−) cells; non-transduced T cells) of -1.16% and a cytotoxicity at 0.005 µM (A549 (FR−) cells; non-transduced T cells) of -1.61%. It also gave a cytotoxicity at 1.6 pM (A549 (FR−) cells; non-transduced T cells) of -1.02%.

With `O=C(O)CCC(NC(=O)NC(CCCCn1cc(CCCCCCNC(=O)c2ccc(C(=O)NCCOCCOCCOCCNC(=O)c3ccc4c(c3)C(=O)OC43c4ccc(O)cc4Oc4cc(O)ccc43)cc2)nn1)C(=O)O)C(=O)O` (centres unmarked) [P-TriA-FITC, 2-[3-(1,3-dicarboxypropyl)ureido]pentanedioic acid-TriA-FITC] the percentage of cytotoxicity ([1]; 4M5.3 anti-FITC CAR T cells, 0.000512 pM) was 3.992% and 3.358% and 4.689%, the percentage of cytotoxicity ([1]; 4M5.3 anti-FITC CAR T cells, 0.012800 pM) was 3.555% and 1.304% and 1.206% and the percentage of cytotoxicity ([1]; 4M5.3 anti-FITC CAR T cells, 0.320000 pM) was 2.224% and 2.545% and 2.965%. For the same molecule, the percentage of cytotoxicity ([1]; 4M5.3 anti-FITC CAR T cells, 8.000000 pM) was 9.173% and 10.76% and 7.583%, the percentage of cytotoxicity ([1]; 4M5.3 anti-FITC CAR T cells, 40.000000 pM) was 52.56% and 55.81% and 53.56% and the percentage of cytotoxicity ([1]; 4M5.3 anti-FITC CAR T cells, 200.000000 pM) was 77.22% and 76.53% and 73.92%. The percentage of cytotoxicity ([1]; 4M5.3 anti-FITC CAR T cells, 1000.000000 pM) was 82.62% and 79.94% and 78.91%, the percentage of cytotoxicity ([1]; 4M5.3 anti-FITC CAR T cells, 5000.000000 pM) was 82.04% and 77.45% and 78.01% and the percentage of cytotoxicity ([1]; Non-transduced T cells, 0.000512 pM) was 1.418% and 0.8462% and 1.052%. For the same molecule, the percentage of cytotoxicity ([1]; Non-transduced T cells, 0.012800 pM) was 1.632% and 0.1496% and 0.8552%, the percentage of cytotoxicity ([1]; Non-transduced T cells, 0.320000 pM) was 0.1943% and 0.5515% and −0.1898% and the percentage of cytotoxicity ([1]; Non-transduced T cells, 8.000000 pM) was 1.409% and 0.4622% and 0.5515%. The percentage of cytotoxicity ([1]; Non-transduced T cells, 40.000000 pM) was −1.11% and −0.5828% and 1.177%, the percentage of cytotoxicity ([1]; Non-transduced T cells, 200.000000 pM) was −0.5292% and 0.5069% and −0.422% and the percentage of cytotoxicity ([1]; Non-transduced T cells, 1000.000000 pM) was 0.02456% and 0.09601% and 0.04242%. The percentage of cytotoxicity ([1]; Non-transduced T cells, 5000.000000 pM) was 1.052% and −0.9132% and 0.1139%, the “intravenous (IV) half-life t1/2” value [2] was 1.08 ± 0.14 h and the Tumor response (C4-2 (PSMA+) tumors; FITC-CART cells (FITC-E2) i.p. plus switch 1 mg/kg i.v. daily for 10 days) was “tumors had regressed”. For the same molecule, the Tumor response (C4-2 (PSMA+) tumors; switch only, no CART cells) was “tumor growth continued”.

With “FITC-anti-Her2 antibody CAR-T switch with FITC conjugated at LC S202pAcF (Fab based on Trastuzumab)” the % cytotoxicity; 0.01 pM switch; MDA MB231 cells (Her2) was 0%, the % cytotoxicity; 0.1 pM switch; MDA MB231 cells (Her2) was 0% and the % cytotoxicity; 100 pM switch; MDA MB231 cells (Her2) was 48%. It also gave an EC50 of cytotoxicity; SKBR3 cells (Her2) of 8000 to 20000 pM.

B1: anti-CD19 Fab-FITC switch LG68X (pAzF at glycine 68 of the light chain) (Fab, V domains shown)
VH: EVKLQESGPGLVAPSQSLSVTCTVSGVSLPDYGVSWIRQPPRKGLEWLGVIWGSETTYYNSALKSRLTIIKDNSKSQVFLKMNSLQTDDTAIYYCAKHYYYGGSYAMDYWGQGTSVTVSS
VL: DIQMTQTTSSLSASLGDRVTISCRASQDISKYLNWYQQKPDGTVKLLIYHTSRLHSGVPSRFSGSGSXTDYSLTISNLEQEDIATYFCQQGNTLPYTFGGGTKLEIKR
modifications: p-azidophenylalanine (pAzF) at LC G68, clicked to cyclooctyne-FITC linker
With B1 the “Cytotoxicity EC50; FITC-E2 CAR-T; NALM6 cells” value (CD19 [3]) was 3.53 pM, the “% cytotoxicity; 0.01 pM switch; FITC-E2 CAR-T; NALM6 cells” value (CD19 [4]) was 0% and the “% cytotoxicity; 0.1 pM switch; FITC-E2 CAR-T; NALM6 cells” value (CD19 [4]) was 3.85%. For the same molecule, the “% cytotoxicity; 1 pM switch; FITC-E2 CAR-T; NALM6 cells” value (CD19 [4]) was 17.8%, the “% cytotoxicity; 10 pM switch; FITC-E2 CAR-T; NALM6 cells” value (CD19 [4]) was 56.7% and the “% cytotoxicity; 100 pM switch; FITC-E2 CAR-T; NALM6 cells” value (CD19 [4]) was 78.1%. For the same molecule, the “% cytotoxicity; 1000 pM switch; FITC-E2 CAR-T; NALM6 cells” value (CD19 [4]) was 74.5%.

B2: anti-CD19 Fab-FITC switch HS74X (pAzF at serine 74 of the heavy chain) (Fab, V domains shown)
VH: EVKLQESGPGLVAPSQSLSVTCTVSGVSLPDYGVSWIRQPPRKGLEWLGVIWGSETTYYNSALKSRLTIIKDNXKSQVFLKMNSLQTDDTAIYYCAKHYYYGGSYAMDYWGQGTSVTVSS
VL: DIQMTQTTSSLSASLGDRVTISCRASQDISKYLNWYQQKPDGTVKLLIYHTSRLHSGVPSRFSGSGSGTDYSLTISNLEQEDIATYFCQQGNTLPYTFGGGTKLEIKR
modifications: pAzF at HC S74, clicked to cyclooctyne-FITC linker
For B2, the “Cytotoxicity EC50; FITC-E2 CAR-T; NALM6 cells” value (CD19 [3]) was 0.97 pM, the “% cytotoxicity; 0.01 pM switch; FITC-E2 CAR-T; NALM6 cells” value (CD19 [4]) was 0% and the “% cytotoxicity; 0.1 pM switch; FITC-E2 CAR-T; NALM6 cells” value (CD19 [4]) was 21.4%. For the same molecule, the “% cytotoxicity; 1 pM switch; FITC-E2 CAR-T; NALM6 cells” value (CD19 [4]) was 47.6%.
